Test results published in patent US20260354380A1, “PYRAZOLO PESTICIDAL COMPOUNDS” (BASF SE, priority 2022, published 2026).

Columns and labels:
Type in all cases: in vivo
Heliothis virescens = assay: Action on Tobacco Budworm (Heliothis virescens); conditions: 800 ppm, egg and larval mortality, 5 days
Method: Example B5: Action on Tobacco Budworm (Heliothis virescens)
For evaluating control of tobacco budworm (Heliothis virescens) the test unit consisted of 96-well-microtiter plates containing an insect diet and 15-25 H. virescens eggs.
The compounds were formulated using a solution containing 75% v/v water and 25% v/v DMSO. Different concentrations of formulated compounds were sprayed onto the insect diet at 10 μl, using a custom-built micro atomizer, at two replications.
After application, microtiter plates were incubated at about 28±1 °C and about 80±5% relative humidity for 5 days. Egg and larval mortality were then visually assessed.

Plutella xylostella = assay: Action on Diamond Back Moth (Plutella xylostella), cabbage leaf dip, 3rd instar larvae; conditions: 300 ppm, 3rd instar larvae, 72 hours after treatment
Method: Example B6: Action on Diamond Back Moth (Plutella xylostella)
The active compound is dissolved at the desired concentration in a mixture of 1:1 (v/v) distilled water:acetone. Surfactant (Kinetic® HV) is added at a rate of 0.01% (v/v). The test solution is prepared at the day of use.
Leaves of cabbage were dipped in test solution and air-dried. Treated leaves were placed in petri dishes lined with moist filter paper and inoculated with ten 3rd instar larvae. Mortality was recorded 72 hours after treatment. Feeding damages were also recorded using a scale of 0-100%.
(§1) Compounds disclosed in the document WO2021013561 were prepared according to procedures described therein and their pesticidal activities were determined by procedure analogues to the procedures as described above in examples B6 and B7.

Spodoptera eridania = assay: Action on Southern Armyworm (Spodoptera eridania), 2nd Instar Larvae; conditions: 300 ppm, 2nd instar larvae, 4 days after treatment
Method: Example B7: Action on Southern Armyworm (Spodoptera eridania), 2nd Instar Larvae
The active compounds were formulated by a Tecan liquid handler in 100% cyclohexanone as a 10,000 ppm solution supplied in tubes. The 10,000 ppm solution was serially diluted in 100% cyclohexanone to make interim solutions. These served as stock solutions for which final dilutions were made by the Tecan in 50% acetone: 50% water (v/v) into 10 or 20 ml glass vials. A nonionic surfactant (Kinetic®) was included in the solution at a volume of 0.01% (v/v). The vials were then inserted into an automated electrostatic sprayer equipped with an atomizing nozzle for application to plants/insects.
Lima bean plants (variety Sieva) were grown 2 plants to a pot and selected for treatment at the 1st true leaf stage. Test solutions were sprayed onto the foliage by an automated electrostatic plant sprayer equipped with an atomizing spray nozzle. The plants were dried in the sprayer fume hood and then removed from the sprayer. Each pot was placed into perforated plastic bags with a zip closure. About 10 to 11 armyworm larvae were placed into the bag and the bags zipped closed. Test plants were maintained in a growth room at about 25 °C and about 20-40% relative humidity for 4 days, avoiding direct exposure to fluorescent light (24 hour photoperiod) to prevent trapping of heat inside the bags. Mortality and reduced feeding were assessed 4 days after treatment, compared to untreated control plants.
as §1

Anthonomus grandis = assay: Action on Boll Weevil (Anthonomus grandis); conditions: 800 ppm, egg and larval mortality, 5 days
Method: Example B3: Action on Boll Weevil (Anthonomus grandis)
For evaluating control of boll weevil (Anthonomus grandis) the test unit consisted of 96-well-microtiter plates containing an insect diet and 5-10 A. grandis eggs.
The compounds were formulated using a solution containing 75% (v/v) water and 25% (v/v) DMSO. Different concentrations of formulated compounds were sprayed onto the insect diet at 5 μl, using a custom-built micro atomizer, at two replications.
After application, microtiter plates were incubated at about 25±1 °C and about 75±5% relative humidity for 5 days. Egg and larval mortality were then visually assessed.

Aedes aegypti = assay: whole plant or invertebrate; conditions: for mortality in comparison with untreated controls: 800 ppm, larvae, 2 days
Method: Example B1: Action on Yellow Fever Mosquito (Aedes aegypti)
For evaluating control of yellow fever mosquito (Aedes aegypti) the test unit consisted of 96-well-microtiter plates containing 200 μl of tap water per well and 5-15 freshly hatched A. aegypti larvae.
The active compounds or mixtures were formulated using a solution containing 75% (v/V) water and 25% (v/v) DMSO. Different concentrations of formulated compounds or mixtures were sprayed onto the insect diet at 2.5 μl, using a custom-built micro atomizer, at two replications. For experimental mixtures in these tests identical volumes of both mixing partners at the desired concentrations respectively, were mixed together.
After application, microtiter plates were incubated at 28±1 °C, 80±5% RH for 2 days. Larval mortality was then visually assessed.

Cc1ccc(C(C)C)c(N2C(=O)CSC2=NC(=O)Nc2ccc(-n3cc(NC(=O)c4csc(Cl)c4)c(C)n3)cc2)c1 [Example C-39]
mortality in comparison with untreated controls (Heliothis virescens): at least 75%
mortality in comparison with untreated controls (Plutella xylostella): at least 75%
mortality in comparison with untreated controls (Spodoptera eridania): at least 75%
mortality in comparison with untreated controls (Anthonomus grandis): at least 75%
mortality in comparison with untreated controls (Aedes aegypti): at least 50%

Cc1ccc(C(C)C)c(N2C(=O)CSC2=NC(=O)Nc2ccc(-n3cc(NC(=O)c4ccc(C(F)F)cc4)c(C)n3)cc2)c1 [Example C-82]
mortality in comparison with untreated controls (Heliothis virescens): at least 75%
mortality in comparison with untreated controls (Plutella xylostella): at least 75%
mortality in comparison with untreated controls (Spodoptera eridania): at least 75%
mortality in comparison with untreated controls (Anthonomus grandis): at least 75%
mortality in comparison with untreated controls (Aedes aegypti): at least 50%

Cc1csc(C(=O)Nc2cn(-c3ccc(NC(=O)/N=C4\SCC(=O)N4c4cc(C)ccc4C(C)C)cc3)nc2C)c1 [Example C-93]
mortality in comparison with untreated controls (Heliothis virescens): at least 75%
mortality in comparison with untreated controls (Plutella xylostella): at least 75%
mortality in comparison with untreated controls (Spodoptera eridania): at least 75%
mortality in comparison with untreated controls (Anthonomus grandis): at least 75%
mortality in comparison with untreated controls (Aedes aegypti): at least 50%

Cc1ccc(C(C)C)c(N2C(=O)CS/C2=N\C(=O)Nc2ccc(-n3cc(NC(=O)c4ccc(C(C)(F)F)cc4)c(C)n3)cc2)c1 [Example C-36]
mortality in comparison with untreated controls (Heliothis virescens): at least 75%
mortality in comparison with untreated controls (Plutella xylostella): at least 75%
mortality in comparison with untreated controls (Spodoptera eridania): at least 75%
mortality in comparison with untreated controls (Anthonomus grandis): at least 75%
mortality in comparison with untreated controls (Aedes aegypti): at least 50%

Cc1ccc(C(C)C)c(N2C(=O)CSC2=NC(=O)Nc2ccc(-n3cc(NC(=O)c4cc(Cl)cs4)c(C)n3)cc2)c1 [Example C-40]
mortality in comparison with untreated controls (Heliothis virescens): at least 75%
mortality in comparison with untreated controls (Plutella xylostella): at least 75%
mortality in comparison with untreated controls (Spodoptera eridania): at least 75%
mortality in comparison with untreated controls (Anthonomus grandis): at least 75%
mortality in comparison with untreated controls (Aedes aegypti): at least 50%

Cc1ccc(C(C)C)c(N2C(=O)CSC2=NC(=O)Nc2ccc(-n3cc(NC(=O)c4csc(Cl)n4)c(C)n3)cc2)c1 [Example C-43]
mortality in comparison with untreated controls (Heliothis virescens): at least 75%
mortality in comparison with untreated controls (Plutella xylostella): at least 75%
mortality in comparison with untreated controls (Spodoptera eridania): at least 75%
mortality in comparison with untreated controls (Anthonomus grandis): at least 75%
mortality in comparison with untreated controls (Aedes aegypti): at least 50%

Cc1ccc(C(C)C)c(N2C(=O)CS/C2=N\C(=O)Nc2ccc(-n3cc(NC(=O)c4ccc(F)c(Cl)c4)c(C)n3)cc2)c1 [Example C-28]
mortality in comparison with untreated controls (Heliothis virescens): at least 75%
mortality in comparison with untreated controls (Plutella xylostella): at least 75%
mortality in comparison with untreated controls (Spodoptera eridania): at least 75%
mortality in comparison with untreated controls (Anthonomus grandis): at least 75%
mortality in comparison with untreated controls (Aedes aegypti): at least 50%

Cc1nn(-c2ccc(NC(=O)N=C3SCC(=O)N3c3ccccc3C(C)C)cc2)cc1NC(=O)c1ccc(OC(F)(F)F)cc1 [Example C-8]
mortality in comparison with untreated controls (Heliothis virescens): at least 75%
mortality in comparison with untreated controls (Plutella xylostella): at least 75%
mortality in comparison with untreated controls (Spodoptera eridania): at least 75%
mortality in comparison with untreated controls (Anthonomus grandis): at least 75%
mortality in comparison with untreated controls (Aedes aegypti): at least 50%

Cc1ccc(C(C)C)c(N2C(=O)CS/C2=N\C(=O)Nc2ccc(-n3nc(C)c(NC(=O)c4ccc(OC(F)(F)F)cc4)c3C3CC3)cc2)c1 [Example C-5, N-[5-cyclopropyl-1-[4-[[(Z)-[3-(2-isopropyl-5-methyl-phenyl)-4-oxo-thiazolidin-2-ylidene]carbamoyl]amino]phenyl]-3-methyl-pyrazol-4-yl]-4-(trifluoromethoxy)benzamide]
mortality at 800 ppm (Heliothis virescens; Heliothis virescens, 120 h, read-out: mortality in comparison with untreated controls): ≥ 75%
mortality at 300 ppm (Plutella xylostella; Plutella xylostella, foliar, read-out: mortality in comparison with untreated controls): ≥ 75%
mortality at 300 ppm (Spodoptera eridania; Spodoptera eridania, 96 h, read-out: mortality in comparison with untreated controls): ≥ 75%
mortality at 800 ppm (Anthonomus grandis; Anthonomus grandis, 120 h, read-out: mortality in comparison with untreated controls): ≥ 75%
mortality at 800 ppm (Aedes aegypti; Aedes aegypti, 48 h, read-out: mortality in comparison with untreated controls): ≥ 50%

Cc1ccc(C(C)C)c(N2C(=O)CSC2=NC(=O)Nc2ccc(-n3cc(NC(=O)c4nc(Cl)cs4)c(C)n3)cc2)c1 [Example C-42]
mortality in comparison with untreated controls (Heliothis virescens): at least 75%
mortality in comparison with untreated controls (Plutella xylostella): at least 75%
mortality in comparison with untreated controls (Spodoptera eridania): at least 75%
mortality in comparison with untreated controls (Anthonomus grandis): at least 75%
mortality in comparison with untreated controls (Aedes aegypti): at least 50%

Cc1ccc(C(C)C)c(N2C(=O)CS/C2=N\C(=O)Nc2ccc(-n3nc(C)c(NC(=O)c4ccc(OC(F)(F)F)cc4)c3C)cc2)c1 [Example C-15]
mortality in comparison with untreated controls (Heliothis virescens): at least 75%
mortality in comparison with untreated controls (Plutella xylostella): at least 75%
mortality in comparison with untreated controls (Spodoptera eridania): at least 75%
mortality in comparison with untreated controls (Anthonomus grandis): at least 75%
mortality in comparison with untreated controls (Aedes aegypti): at least 50%

COc1cc(-n2cc(NC(=O)c3ccc(OC(F)(F)F)cc3)c(C)n2)ccc1NC(=O)/N=C1\SCC(=O)N1c1cc(C)ccc1C(C)C [Example C-14]
mortality in comparison with untreated controls (Heliothis virescens): at least 75%
mortality in comparison with untreated controls (Plutella xylostella): at least 75%
mortality in comparison with untreated controls (Spodoptera eridania): at least 75%
mortality in comparison with untreated controls (Anthonomus grandis): at least 75%
mortality in comparison with untreated controls (Aedes aegypti): at least 50%

Cc1ccc(C(C)C)c(N2C(=O)CSC2=NC(=O)Nc2ccc(-n3cc(NC(=O)c4ccncc4)c(C)n3)cc2)c1 [Example C-59]
mortality in comparison with untreated controls (Heliothis virescens): at least 75%
mortality in comparison with untreated controls (Plutella xylostella): at least 75%
mortality in comparison with untreated controls (Spodoptera eridania): at least 75%
mortality in comparison with untreated controls (Anthonomus grandis): at least 75%
mortality in comparison with untreated controls (Aedes aegypti): at least 50%

Cc1ccc(C(C)C)c(N2C(=O)CS/C2=N\C(=O)Nc2ccc(-n3cc(NC(=O)c4cccs4)c(C)n3)cc2)c1 [Example C-95]
mortality in comparison with untreated controls (Heliothis virescens): at least 75%
mortality in comparison with untreated controls (Plutella xylostella): at least 75%
mortality in comparison with untreated controls (Spodoptera eridania): at least 75%
mortality in comparison with untreated controls (Anthonomus grandis): at least 75%
mortality in comparison with untreated controls (Aedes aegypti): at least 50%

Cc1ccc(C(C)C)c(N2C(=O)CSC2=NC(=O)Nc2ccc(-n3cc(NC(=O)c4ccc(S(=O)(=O)C(F)(F)F)cc4)c(C)n3)cc2)c1 [Example C-79]
mortality in comparison with untreated controls (Heliothis virescens): at least 75%
mortality in comparison with untreated controls (Plutella xylostella): at least 75%
mortality in comparison with untreated controls (Spodoptera eridania): at least 75%
mortality in comparison with untreated controls (Anthonomus grandis): at least 75%
mortality in comparison with untreated controls (Aedes aegypti): at least 50%

Cc1ccc(C(C)C)c(N2C(=O)CSC2=NC(=O)Nc2ccc(-n3cc(NC(=O)c4ccc(C5CC5(F)F)cc4)c(C)n3)cc2)c1 (racemic) [Example C-65]
mortality in comparison with untreated controls (Heliothis virescens): at least 75%
mortality in comparison with untreated controls (Plutella xylostella): at least 75%
mortality in comparison with untreated controls (Spodoptera eridania): at least 75%
mortality in comparison with untreated controls (Anthonomus grandis): at least 75%
mortality in comparison with untreated controls (Aedes aegypti): at least 50%
